From US7485655B2, “2-Aminothiazole allosteric enhancers of A1 adenosine receptors” (University of Virginia Patent Foundation, priority 2002, dated 2009)

What was measured:
[1] = system: chicken chorioallantoic membrane (CAM); test: CAM assay, adenosine applied via Elvax pellets; type: in vivo; details: Elvax pellet with 3 mg adenosine, left in place seven days
Protocol: Fertile White Leghorn chicken eggs were obtained from Truslow Farms (Chesterfield, Mo.). Eggs were incubated at 37° for 7 days, then a 1.5 cm window was cut into each egg over the CAM. Pellets were applied to the CAMS and the windows closed with cellophane tape. Eggs were incubated until day 14 when the CAMS were fixed. […] The pellets were placed on the CAM where there were a few vessels present and were left in place for seven days. The CAMS then were fixed in 10% buffered formalin and vessels were counted under 20× magnification using a Nikon stereomicroscope. The quantitation of vascular number is presented as vascular density index VDI that was an adaptation of a method described by Harris-Hooker (Harris-Hooker et al., Neovascular Responses Induced by Cultured Aortic Endothelial Cells, J Cell. Phys., 114, 302-310, 1983). A plastic cover slip inscribed with 4, 5, 6, and 8 mm diameter concentric circles was centered over the adenosine pellet on the formalin-fixed CAM. The vascular density was judged by counting the numbers of the vessels which intersected the circles. This technique allowed counting of vessels down to 10-12 u in diameter. The positioning of the pellets on the CAM was randomized. […] Adenosine was delivered by other means as well.

[2] = system: chicken chorioallantoic membrane (CAM); test: CAM assay, drug applied daily on filter paper disc; type: in vivo; details: for angiogenic response in the CAM (vessel density at edge of disk): 100 nM doses, 100 μl daily for 7 days on filter paper disk
human A3 receptor = target: T1, human A3 receptor (Homo sapiens, UniProt P0DMS8); details: cited from earlier work
T1 sequence (P0DMS8 1-318): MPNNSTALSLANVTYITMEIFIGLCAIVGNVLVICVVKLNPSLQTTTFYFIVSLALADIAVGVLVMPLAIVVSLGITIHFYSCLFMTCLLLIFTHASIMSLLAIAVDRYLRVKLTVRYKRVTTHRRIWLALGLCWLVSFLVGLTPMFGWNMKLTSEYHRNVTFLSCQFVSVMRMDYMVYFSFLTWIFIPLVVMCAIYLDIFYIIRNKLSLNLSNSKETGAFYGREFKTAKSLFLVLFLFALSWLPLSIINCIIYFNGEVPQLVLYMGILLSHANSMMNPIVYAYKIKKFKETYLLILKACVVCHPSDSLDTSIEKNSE

rat mesentery = test: Rat mesentery angiogenesis, chronic intraperitoneal infusion by Alzet osmotic pump; type: in vivo; details: chronic infusion via Alzet pumps into the peritoneal cavity of a rat
Protocol: Drug application into rat mesentery using infusion pumps. Alzet osmotic pumps were filled with drug or vehicle to a volume of 200 μl. The abdominal cavities of anesthetized 150 g Sprague-Dawley rats were incised and pumps implanted into the intraperitoneal cavity. The pumps delivered the drug at 1.0 μl/hr. After one week mesenteric samples were taken between vascular arcades along the length of the small bowel. Specimens were fixed and stained using a BS:lectin stain.
The chronic infusion was an advantage because the model is not an ischemic one, so steady long term administration of the PD 81,723 may help to augment the effects of lower concentrations of endogenous adenosine.

Nc1ncnc2c1ncn2[C@@H]1O[C@H](CO)[C@@H](O)[C@H]1O [Adenosine]
angiogenesis in the windowed CAM model (vascular density index) [1]: stimulated angiogenesis

CCNC(=O)[C@H]1O[C@@H](n2cnc3c(N)nc(NCCc4ccc(CCC(=O)O)cc4)nc32)[C@H](O)[C@@H]1O [CGS21680]
angiogenic response in the CAM (vessel density at edge of disk) [2]: No angiogenic response

OC[C@H]1O[C@@H](n2cnc3c(NC4CCCC4)ncnc32)[C@H](O)[C@@H]1O [CPA, Cyclopentyladenosine]
stimulation of angiogenesis in the CAM at low dose ([2]; 20 nM CPA alone): did not stimulate angiogenesis | angiogenic response in the CAM (vessel density at edge of disk) [2]: positive angiogenic response

CCOC(=O)C1=C(C)NC(c2ccccc2)=C(C(=O)OCc2ccccc2)C1C#Cc1ccccc1 (centres unmarked) [MRS1191]
selectivity for the human A3 over the A1 receptor (human A3 receptor): > 1300 fold

CCNC(=O)[C@H]1O[C@@H](n2cnc3c(N)ncnc32)[C@H](O)[C@@H]1O [NECA]
angiogenic response in the CAM (vessel density at edge of disk) [2]: positive angiogenic response

Cc1sc(N)c(C(=O)c2cccc(C(F)(F)F)c2)c1C [PD 81,723]
stimulation of angiogenesis in the CAM ([2]; 100 μM on filter paper disc, versus vehicle, no applied agonist): 10% | angiogenesis in mature mammalian animal model (rat mesentery): Stimulation of angiogenesis

CC(C)N(C)c1nc2c(N[C@@H]3CC4CC3CC4O)ncnc2n1C (some centres unmarked) [WRC-0571]
block of C17-stimulated angiogenesis in the CAM ([2]; C17 plus WRC-0571): blocked | block of angiogenic effect of CPA in the CAM ([2]; CPA 100 nM with 1 μM WRC-0571): completely blocked | block of the effects of PD on angiogenesis in the CAM ([2]; PD plus WRC-0571): completely blocked | block of the effects of endogenous adenosine in the CAM ([2]; in vivo): blocked the effects of endogenous adenosine

CCCn1c(=O)c2[nH]c(-c3ccc(OCC(=O)NCCN)cc3)nc2n(CCC)c1=O [XAC, xanthine amine congener]
effect on baseline angiogenesis in the CAM ([2]; nonselective antagonist alone, filter paper disk, four eggs): did not inhibit baseline angiogenesis

CNC(=O)[C@H]1O[C@@H](n2cnc3c(NCc4cccc(I)c4)ncnc32)[C@H](O)[C@@H]1O [m-MECA, N^6-iodobenzyl-5′-N-methyl-carboxamidoadenosine]
angiogenic response in the CAM (vessel density at edge of disk) [2]: positive angiogenic response
